Assays:
E. faecalis ATCC 51299 = assay: MIC by broth microdilution method (CLSI); details: Enterococcus faecalis, ATCC51299, 24 h
Experimental: (§4) The compounds were tested for their antibacterial activities against the pathogenic nosocomial strains of Staphylococcus aureus, Enterococcus faecalis Enterococcus faecium, Acinetobacter baumannii. The minimal inhibitory concentration (MIC) was determined by the broth microdilution method according to the recommendations of the Clinical and Laboratory Standards Institute (CLSI) (CLSI M7-A9, 2012). For preparation of the inoculum the growth method was used. Bacterial cells were grown aerobically in Muller Hinton (MH) medium at 37°C and 180 rpm. A preculture was grown until log phase (OD600 nm ∼ 0.5) and then seeded at 5 x 10^4 bacteria/well in a total volume of 100 µL in 96 well round bottom microtiter plates and incubated with serially diluted test substances at a concentration range of 100-0.78 µM. The compounds were screened in two-fold serial dilution. Microplates were incubated aerobically at 37°C for 24 h. MICs were determined by identifying the minimum concentration of the compounds that led to complete inhibition of visual growth of the bacteria.

M. tuberculosis H37Rv = assay: MIC determination, resazurin microplate assay; type: cell-based; details: Mycobacterium tuberculosis, 120 h, five days, range 100-0.78 µM
E. faecalis ATCC 29212 = assay: MIC by broth microdilution method (CLSI); details: Enterococcus faecalis, ATCC29212, 24 h
Experimental: as §4

S. aureus ATCC 25923 = assay: MIC by broth microdilution method (CLSI); details: Staphylococcus aureus, ATCC25923, 24 h
Experimental: as §4

MRSA ATCC 700699 = assay: MIC by broth microdilution method (CLSI); details: Staphylococcus aureus, 24 h
Experimental: as §4

[1] = system: VR E. faecium ATCC 700221; assay: MIC by broth microdilution method (CLSI); details: Enterococcus faecium, ATCC700221, 24 h
Experimental: as §4

E. faecium ATCC 35667 = assay: MIC by broth microdilution method (CLSI); details: Enterococcus faecium, ATCC35667, 24 h
Experimental: as §4

[2] = system: nosocomial pathogens and Mycobacterium tuberculosis; assay: MIC determination, statements across the tested strains; type: cell-based; details: for activity against the tested strains: tested concentration range 100-0.78 µM
[3] = system: methicillin-sensitive Staphylococcus aureus; assay: MIC quantified via the BacTiter-Glo assay; type: cell-based; details: methicillin-sensitive strain; 24 h
Experimental: (§1) The MICs of compounds according to formulas (2), (3), (4), (7), (11), (12) and (18) were additionally quantified via the BacTiter-Glo™ assay (Promega, Madison, WI, USA). Briefly, after an incubation time of 24 h, each well was resuspended by pipetting, and 50 µL aliquots were transferred into an opaque-walled multiwell plate. Additionally, control wells containing medium without cells to determine background luminescence were prepared. 50 µL BacTiter-Glo™ reagent were added to each well. Contents were mixed and incubated for five minutes at room temperature. Luminescence was measured using a microplate reader. Growth was calculated relative to the background luminescence (0% growth) and a compound-free DMSO control (100% growth).

[4] = system: methicillin-resistant Staphylococcus aureus; assay: MIC quantified via the BacTiter-Glo assay; type: cell-based; details: methicillin-resistant strain; 24 h
Experimental: as §1

[5] = system: Staphylococcus aureus MRSA strain ATCC 700699; assay: Time-kill curves in vitro (killing kinetics); type: cell-based
[6] = system: human monocyte cell line THP-1; assay: Cytotoxicity, resazurin assay; type: cell-based; details: THP-1 cells, 48 h
Experimental: (§2) The cytotoxicity of the compounds according to formulas (2), (3) and (4) and according to formulas (7), (11), (12) and (18) was determined in vitro using the human monocyte cell line THP-1 (Deutsche Sammlung von Mikroorganismen und Zellkulturen GmbH) and the human fetal lung fibroblast cell line MRC-5 (American Type Culture Collection).
(§3) THP-1 cells were cultured in RPMI 1640 medium containing 10% (v/v) fetal bovine serum (FBS), while MRC-5 cells were incubated in Dulbecco's Modified Eagles Medium (DMEM) containing 10% (v/v) FBS both at 37°C in a humidified atmosphere of 5% CO2. […] Cells treated with DMSO in a final concentration of 1% (v/v) served as DMSO toxicity controls. After an incubation time of 48 h, 10 µL resazurin solution (100 µg/mL) were added per well and incubated for further 3 h at 37°C in a humidified atmosphere of 5% CO2. Fluorescence was quantified using a microplate reader (excitation 540 nm, emission 590 nm). Growth was calculated relative to non-inoculated (i.e. cell-free) (0% growth) and untreated (100% growth) controls in triplicate experiments, respectively. For determination of the therapeutic index of the tested substances, the selectivity index (SI) was determined by the quotient of cytotoxic concentration and MIC. Compounds with SI ≥ 10 were characterized in further experiments.

[7] = system: human fetal lung fibroblast cell line MRC-5; assay: Cytotoxicity, resazurin assay; type: cell-based; details: MRC-5 cells, 48 h
Experimental: as §2, §3

[8] = system: Methicillin resistant S. aureus (MRSA; ATCC 700699); assay: Resistance development during time-kill kinetics; type: cell-based, Staphylococcus aureus; details: after 6 and 24 h of incubation, plated on agar with 5x MIC
Experimental: Additionally, the resistance rate of the cultures was determined after 6 and 24 h of incubation. For this, 20 µL of the cultures were plated on 1 mL MH agar containing the five-fold MIC of the compounds (for the compound according to formula (2) and (4): 2 µM, for the compound according to formula (3): 8 µM). After an incubation time of 24 h at 37°C, the colonies were counted. The resistance rate was determined as quotient of the number of resistant colonies on compound containing agar and the total amount of viable bacteria at the corresponding time points.
Two independent cultures C1 and C2 were tested for each attempt. Compounds were tested at 5x MIC resulting in 0.02-0.08% DMSO final concentration. In an independent experiment, medium was replaced and compounds were freshly added after 6 h, denoted "freshly added" in the Figure. 20 µL of different dilution of the cultures after either 6 or 24 h of incubation were plated out on MH agar containing either no antibiotics, which is denoted (*) or the compounds of formulas (2) and (3) at 5x MIC, respectively.

SMILES | MIC (E. faecalis ATCC 51299) | MIC (M. tuberculosis H37Rv) | MIC (E. faecalis ATCC 29212) | MIC (S. aureus ATCC 25923) | MIC (MRSA ATCC 700699) | MIC [1] | MIC (E. faecium ATCC 35667) | effect against M. tuberculosis, S. aureus and E.faecium [2] | inhibition of Staphylococcus aureus (BacTiter-Glo) [3] | inhibition of Staphylococcus aureus (BacTiter-Glo) [4] | activity against the tested strains [2] | bacteria amount ([5]; after 6 h at five-fold MIC, inoculum 10^6 CFU/mL) | killing effect ([5]; five-fold MIC) | cytotoxic (inhibitory) concentration [6] | cytotoxic (inhibitory) concentration [7] | level of resistance in treated cultures [8]
c1ccc2c(-c3cnc(-c4c[nH]c5ccccc45)nc3)c[nH]c2c1 [formula (12), 3,3'-(pyrimidine-2,5-diyl)bis(1H-indole)] | 100 µM | 50 µM | 50 µM | 100 µM | 12.5 µM | 100 µM | 100 µM | – | – | – | – | – | – | – | – | –
COc1ccc2c(-c3cnc(-c4c[nH]c5cc(OC)ccc45)cn3)c[nH]c2c1 [formula (9), 2,5-bis(6-methoxy-1H-indole-3-yl)pyrazine] | > 100 µM | > 100 µM | > 100 µM | > 100 µM | > 100 µM | > 100 µM | > 100 µM | did not show any effect | – | – | – | – | – | – | – | –
COc1ccc2[nH]cc(-c3cnc(-c4c[nH]c5ccc(OC)cc45)nc3)c2c1 [formula (14), 3,3'-(pyrimidine-2,5-diyl)bis(5-methoxy-1H-indole)] | 100 µM | 50 µM | 50 µM | > 100 µM | 50 µM | 50 µM | 100 µM | – | – | – | – | – | – | – | – | –
Brc1cc2[nH]cc(-c3cnc(-c4c[nH]c5cc(Br)c(Br)cc45)cn3)c2cc1Br [formula (7), 2,5-bis(5,6-dibromo-1H-indole-3-yl)pyrazine] | > 100 µM | > 100 µM | 100 µM | 100 µM | 25 µM | 50 µM | 50 µM | – | – | – | – | – | – | – | – | –
c1ccc2c(-c3ccc(-c4c[nH]c5ccccc45)nn3)c[nH]c2c1 [formula (17), 3,6-Di(1H-indole-3-yl)pyridazine] | 100 µM | > 100 µM | 100 µM | > 100 µM | > 100 µM | > 100 µM | > 100 µM | – | – | – | – | – | – | – | – | –
c1cnc2[nH]cc(-c3cnc(-c4c[nH]c5ncccc45)nc3)c2c1 [formula (13), 3,3'-(pyrimidine-2,5-diyl)bis(1H-pyrrolo[2,3-b]pyridine)] | > 100 µM | > 100 µM | 100 µM | > 100 µM | > 100 µM | > 100 µM | > 100 µM | – | – | – | – | – | – | – | – | –
c1ccc2c(-c3csc(-c4c[nH]c5ccccc45)n3)c[nH]c2c1 [formula (18), 2,4-di(1H-indole-3-yl)thiazole] | > 100 µM | 100 µM | > 100 µM | 6.25 µM | 3.12 µM | 6.25 µM | 6.25 µM | – | effectively inhibited | effectively inhibited | – | – | – | – | – | –
Brc1ccc2c(-c3cnc(-c4c[nH]c5cc(Br)ccc45)cn3)c[nH]c2c1 [formula (6), 2,5-bis(6-bromo-1H-indole-3-yl)pyrazine] | > 100 µM | > 100 µM | > 100 µM | > 100 µM | > 100 µM | > 100 µM | > 100 µM | – | – | – | no activity could be observed | – | – | – | – | –
c1ccc2c(-c3cnc(-c4c[nH]c5ccccc45)cn3)c[nH]c2c1 [formula (10), 2,5-bis(1H-indole-3-yl)pyrazine] | 25 µM | > 100 µM | 12.5 µM | > 100 µM | > 100 µM | > 100 µM | > 100 µM | did not show any effect | – | – | – | – | – | – | – | –
c1ccc2c(-c3cc(-c4c[nH]c5ccccc45)ncn3)c[nH]c2c1 [formula (15), 4,6-di(1H-indole-3-yl)pyrimidine] | > 100 µM | > 100 µM | > 100 µM | > 100 µM | > 100 µM | > 100 µM | > 100 µM | – | – | – | – | – | – | – | – | –
Fc1ccc2[nH]cc(-c3cnc(-c4c[nH]c5ccc(F)cc45)cn3)c2c1 [formula (5), 2,5-bis(5-fluoro-1H-indole-3-yl)pyrazine] | > 100 µM | > 100 µM | > 100 µM | > 100 µM | > 100 µM | > 100 µM | > 100 µM | – | – | – | no activity | – | – | – | – | –
COc1ccc2[nH]cc(-c3cnc(-c4c[nH]c5ccc(OC)cc45)cn3)c2c1 [formula (8), 2,5-bis(5-methoxy-1H-indole-3-yl)pyrazine] | > 100 µM | > 100 µM | > 100 µM | > 100 µM | > 100 µM | > 100 µM | > 100 µM | did not show any effect | – | – | – | – | – | – | – | –
c1cc(-c2c[nH]c3ccccc23)nc(-c2c[nH]c3ccccc23)c1 [formula (16), 2,6-di(1H-indole-3-yl)pyridine] | 100 µM | > 100 µM | 100 µM | > 100 µM | > 100 µM | > 100 µM | > 100 µM | – | – | – | – | – | – | – | – | –
Fc1ccc2[nH]cc(-c3cnc(-c4c[nH]c5ccc(F)cc45)nc3)c2c1 [formula (11), 3,3'-(pyrimidine-2,5-diyl)bis(5-fluoro-1H-indole)] | 100 µM | > 100 µM | 100 µM | 100 µM | 12.5 µM | 50 µM | 50 µM | – | – | – | – | – | – | – | – | –
Brc1ccc2[nH]cc(-c3cnc(-c4c[nH]c5ccc(Br)cc45)cn3)c2c1 [formula (3), 2,5-bis(5-bromo-1H-indole-3-yl)pyrazine] | > 100 µM | > 100 µM | > 100 µM | 1.56 µM | 1.56 µM | > 100 µM | > 100 µM | – | effectively inhibited | effectively inhibited | – | 10^2 CFU/mL | strong bactericidal killing effect | 12.5 µM | 12.5 µM | no significant level of resistance was detectable
